Experimental data reported in patent publication US20250213530A1 (GH RESEARCH IRELAND LIMITED, priority 2022, published 2025).

Experiments:
[1] = test system: patient with postpartum depression (PPD); test: Clinical trial of inhaled 5-MeO-DMT (IDR, 6 mg then 12 mg), MADRS; assay type: in vivo, human; conditions: one PPD patient; for Total MADRS improvement / Total MADRS score: baseline 29
Text: (§1) The patient completed all planned visit days.

[2] = test system: patient with postpartum depression (PPD); test: Clinical trial of inhaled 5-MeO-DMT (IDR, 6 mg then 12 mg), BPRS; assay type: in vivo, human; conditions: one PPD patient, baseline 6
Text: as §1

[3] = test system: patient with postpartum depression (PPD); test: Clinical trial of inhaled 5-MeO-DMT (IDR, 6 mg then 12 mg), Barkin Index of Maternal Functioning (BIMF); assay type: in vivo, human; conditions: one PPD patient
Text: Maternal functioning can, for instance, be assessed using the Barkin Index of Maternal Functioning (BIMF). This index was designed to measure functioning in the year after childbirth. The BIMF is a 20-item self-report measure of functioning. Each item is assigned a score between 0 and 6 so that the maximum total score is 120. The higher the score, the better maternal functioning is rated.
The BIMF identifies the key functional domains of a mother during the postnatal period as: self-care, infant care, mother-child interaction, psychological wellbeing of the mother, social support, management, and adjustment.
as §1

[4] = test system: patient with postpartum depression (PPD); test: Clinical trial of inhaled 5-MeO-DMT, safety and tolerability; assay type: in vivo, human; conditions: one PPD patient
Text: as §1

[5] = Pharmacokinetics after inhalation of 5-MeO-DMT, LC-MS/MS

COc1ccc2[nH]cc(CCN(C)C)c2c1 [5-MeO-DMT]
standard criteria for MADRS remission (MADRS total score equal or less than 10) [1]: fulfilled | standard criteria for MADRS response (at least 50% improvement from baseline) [1]: fulfilled | Total MADRS improvement ([1]; 2 hr): 24 | Total MADRS score ([1]; 2 hr): 5 | Total MADRS improvement ([1]; Day 1): 29 | Total MADRS score ([1]; Day 1): 0 | Total MADRS improvement ([1]; Day 7): 28 | Total MADRS score ([1]; Day 7): 1 | time to clinical remission after administration ([1]; IDR 6 mg then 12 mg): ≤ 2 h | BPRS Tension improvement ([2]; Day 1): 5 | BPRS Tension improvement ([2]; Discharge): 5 | BIMF item 19 (As time goes on, I am getting better at taking care of my baby) score ([3]; Day 7, Day 0 score 0): 1 | BIMF item 16 (I worry about how other people judge me (as a mother)) score ([3]; Day 7, Day 0 score 3): 5 | BIMF item 13 (I am taking good care of my physical needs) score ([3]; Day 7, Day 0 score 4): 5 | BIMF item 5 (I am able to relax and enjoy time with my baby) score ([3]; Day 7, Day 0 score 5): 6 | BIMF item 9 (I am getting enough encouragement from other people) score ([3]; Day 7, Day 0 score 5): 6 | BIMF item 10 (I trust my own feelings (instincts) when it comes to taking care of my baby) score ([3]; Day 7, Day 0 score 5): 6 | BIMF item 11 (I take a little time each week to do something for myself) score ([3]; Day 7, Day 0 score 5): 6 | BIMF item 17 (I am able to take care of my baby and my other responsibilities) score ([3]; Day 7, Day 0 score 5): 5 | BIMF functional domain Adjustment score ([3]; Day 7, Day 0 score 5, maximum possible 12): 6 | BIMF item 3 (I am comfortable with the way I've chosen to feed my baby) score ([3]; Day 7, Day 0 score 6): 6 | BIMF item 6 (There are people in my life that I can trust to care for my baby when I need a break) score ([3]; Day 7, Day 0 score 6): 6 | BIMF item 8 (I am getting enough adult interaction) score ([3]; Day 7, Day 0 score 6): 6 | BIMF item 12 (I am taking good care of my baby's physical needs) score ([3]; Day 7, Day 0 score 6): 6 | BIMF item 14 (I make good decisions about my baby's health and well being) score ([3]; Day 7, Day 0 score 6): 6 | BIMF item 20 (I am satisfied with the job I am doing as a new mother) score ([3]; Day 7, Day 0 score 6): 5 | BIMF functional domain Self Care score ([3]; Day 7, Day 0 score 9, maximum possible 18): 13 | BIMF functional domain Infant Care score ([3]; Day 7, Day 0 score 12, maximum possible 12): 12 | BIMF functional domain Mother-Child Interaction score ([3]; Day 7, Day 0 score 15, maximum possible 18): 17 | BIMF functional domain Social Support score ([3]; Day 7, Day 0 score 17, maximum possible 18): 18 | BIMF functional domain Management score ([3]; Day 7, Day 0 score 28, maximum possible 36): 33 | BIMF functional domain Psychological Well-being score ([3]; Day 7, Day 0 score 44, maximum possible 60): 53 | BIMF total score improvement ([3]; Day 7, from 92 to 105): 14% | BIMF TOTAL Δ (Day 7) ([3]; Day 7 vs Day 0): 13 | BIMF functional domain Adjustment % Improvement ([3]; Day 7 vs Day 0): 20.00% | BIMF functional domain Infant Care % Improvement ([3]; Day 7 vs Day 0): 0.00% | BIMF functional domain Management % Improvement ([3]; Day 7 vs Day 0): 18% | BIMF functional domain Self Care % Improvement ([3]; Day 7 vs Day 0): 44% | BIMF item 3 (I am comfortable with the way I've chosen to feed my baby) Δ (Day 7) ([3]; Day 7 vs Day 0): 0 | BIMF item 5 (I am able to relax and enjoy time with my baby) Δ (Day 7) ([3]; Day 7 vs Day 0): 1 | BIMF item 6 (There are people in my life that I can trust to care for my baby when I need a break) Δ (Day 7) ([3]; Day 7 vs Day 0): 0 | BIMF item 8 (I am getting enough adult interaction) Δ (Day 7) ([3]; Day 7 vs Day 0): 0 | BIMF item 9 (I am getting enough encouragement from other people) Δ (Day 7) ([3]; Day 7 vs Day 0): 1 | BIMF item 10 (I trust my own feelings (instincts) when it comes to taking care of my baby) Δ (Day 7) ([3]; Day 7 vs Day 0): 1 | BIMF item 11 (I take a little time each week to do something for myself) Δ (Day 7) ([3]; Day 7 vs Day 0): 1 | BIMF item 12 (I am taking good care of my baby's physical needs) Δ (Day 7) ([3]; Day 7 vs Day 0): 0 | BIMF item 13 (I am taking good care of my physical needs) Δ (Day 7) ([3]; Day 7 vs Day 0): 1 | BIMF item 14 (I make good decisions about my baby's health and well being) Δ (Day 7) ([3]; Day 7 vs Day 0): 0 | BIMF item 17 (I am able to take care of my baby and my other responsibilities) Δ (Day 7) ([3]; Day 7 vs Day 0): 0 | BIMF item 19 (As time goes on, I am getting better at taking care of my baby) Δ (Day 7) ([3]; Day 7 vs Day 0): 1 | BIMF item 20 (I am satisfied with the job I am doing as a new mother) Δ (Day 7) ([3]; Day 7 vs Day 0): −1 | ECG (at 3 hours), safety laboratory analyses (at 7 days), CADSS (at 3 hours, 1 day and 7 days) [4]: unremarkable | reported adverse events (cramping left abdominal pain and headache, both on Day 0) [4]: mild, short-lasting and resolved spontaneously | tolerability of the inhalation procedure [4]: well tolerated with no inhalation-related adverse events | changes in vital parameters ([4]; shortly after administration, no other noteworthy changes): temporary, clinically non-relevant increase in heart rate and blood pressure | plasma concentration as % of Cmax ([5]; 10 minutes after administration, whole dose range tested (6 mg, 12 mg, 18 mg)): ≤ 10 % of Cmax | plasma concentration as % of Cmax ([5]; after 2 hours, whole dose range tested (6 mg, 12 mg, 18 mg)): ≤ 1 % of Cmax | detectability in the plasma ([5]; after 3 hours, whole dose range tested (6 mg, 12 mg, 18 mg)): no longer detectable | pharmacokinetic measurements, uptitration dosing schemes ([5]; compared with the single dose results): Substantially similar results | accumulation upon repeated administration ([5]; repeated administration within a time frame of 1 to 4 hours): No accumulation
